Experimental data reported in article PMC10892429, “Design, Synthesis, and Antitumor Evaluation of an Opioid Growth Factor Bioconjugate Targeting Pancreatic Ductal Adenocarcinoma” (Pharmaceutics, 2024).

What was measured:
[1] = test system: HEK-293 human embryonic kidney cells; test: MTT viability assay, HEK-293
Experimental: (§1) The MIA PaCa-2 and AsPC-1 pancreatic cancer cell lines were obtained from the American Type Culture Collection (ATCC; Manassas, VA, USA). MIA PaCa-2, a human pancreatic cancer cell line, was isolated from the pancreatic duct (ATCC, CRL-1420) and cultured in Dulbecco’s Modified Eagle’s Medium (DMEM), supplemented with 10% FBS, 2.5% horse serum, and 1% penicillin/streptomycin (P/S). AsPC-1, a human metastatic pancreatic tumor cell line (ATCC, CRL-1682), was cultured in Roswell Park Memorial Institute 1640 Medium, supplemented with 10% FBS and 1% P/S. HDFa, a human primary dermal fibroblast was obtained from the American Type Culture Collection (ATCC; Manassas, VA, USA). The HDFa was cultured in DMEM and supplemented with 10% FBS and 1% P/S. HEK-293 immortalized human embryonic kidney was obtained courtesy of Professor Ewa Augustin from the Gdansk University of Technology. The HEK-293 was cultured in DMEM, and supplemented with 10% FBS and 1% P/S. Cells were cultured at 37 °C in a humidified atmosphere with 5% CO2. The cells were maintained in a 75 cm^2 tissue culture flask. The medium was replaced every two days. […]
(§2) In a 96-well plate, 7 × 10^3 MIA PaCa-2 and AsPC-1 cells and 3 × 10^3 HEK-293 and 10^4 HDFa cells were seeded per well. […] Cell viability was assessed using the MTT assay. […]

[2] = test system: washed platelets; test: Platelet aggregation by compounds alone, light aggregometry; conditions: tested concentration
[3] = test system: AsPC-1 metastatic pancreatic cancer cells; test: MTT cytotoxicity assay, AsPC-1; format: cell-based, human; conditions: AsPC-1, 72 h
Experimental: The medium was replaced every two days.
Cell viability was assessed using the MTT assay.

[4] = test system: HDFa human primary dermal fibroblasts; test: MTT viability assay, HDFa
Experimental: as §1, §2

[5] = Stability in DMEM supplemented with 10% FBS; format: in vitro ADME; conditions: DMEM + 10% FBS
Experimental: The OGF-Gem conjugate and OGF alone were incubated in a medium (DMEM) supplemented with 10% FBS at a temperature of 37 °C. The initial concentrations of the peptide and conjugate solutions were both 0.5 mM. Samples of 60 μL were taken immediately after the start of incubation, 30 min, 90 min, 180 min, and 23 h and mixed with 60 μL of acetonitrile to separate the proteins. The formed precipitate was removed via centrifugation for 15 min at 13,000 rpm. The supernatant was analyzed via RP-HPLC [(Shimadzu Prominence, Duisburg, Germany) linear gradient 10–90% phase B, 20 min., column Kinetex 5 μm XB-C18 100Å 150 × 4.6 mm] and MALDI-MS (Autoflex maX MALDI-TOF spectrometer, Bruker Daltonics, Bremen, Germany) using a 2,5-dihydroxybenzoic acid matrix (DHB). A stability analysis was performed according to a protocol previously described by us.

[6] = test system: washed platelets; test: LDH release assay on washed platelets; format: cell-based, human; conditions: 50 and 100 μM, 15 min at 37 °C, fluorescence
Experimental: The isolated WP (prepared as described in Section 2.12) were transferred to a 96-well plate for fluorescence measurements. Next, the OGF-Gm conjugate and the OGF at 50 and 100 μM concentrations were added. The control sample consisted of platelets suspended in Tyrod buffer. The positive control was WP treated with lysis buffer (0.1% Triton X-100) and the lysis buffered-WPs were set to 100%. Platelets with tested compounds were incubated for 15 min at 37 °C. Then, 100 μL of the LDH assay was added to each well and incubated for another 10 min, protected from light. The reaction was stopped with a Stop Solution buffer. Fluorescence intensity was measured with a plate reader (λex 560 nm; λem 590 nm). The results were expressed as the percentage of the total LDH release.

[7] = test system: MIA PaCa-2 cells; test: Cell senescence (flow cytometry and optical microscopy), MIA PaCa-2; format: cell-based, human; conditions: MIA PaCa-2, 72 h; OGF-Gem increasing concentrations (3.125–100 nM), OGF 100 nM, Gem 100 nM
Experimental: In a 6-well plate, 1.7 × 10^5 MIA PaCa-2 and AsPC-1 cells were seeded per well. […] After incubation, the floating and attached cells were collected using a 1% BSA solution and fixed with 2% paraformaldehyde in PBS for 10 min at room temperature. The cells were washed with 1% BSA solution and incubated with the Senescence Detection Kit for 1.5 h at 37 °C without CO2, protected from light. Next, cell senescence was measured via flow cytometry (λex 490 nm; λem 514 nm). Ten thousand events were measured per sample. The data were expressed as a percentage of untreated cells (set to 100%), which were the control.
In a 12-well plate, 10^5 PaCa-2 and AsPC-1 cells were seeded per well. […] The medium was removed from each well and washed with a PBS (pH 7.2) buffer. The cells were incubated with fixative solution (0.2% glutaraldehyde, 2% paraformaldehyde, and a PBS buffer) for 5 min at room temperature. The cells were washed with a PBS (pH 6.0) buffer. Next, the cells were incubated with a staining solution (1 mg/mL X-Gal/DMF, 5 mM K3Fe(CN)6, 5 mM K4Fe(CN)6, 2 mM MgCl2, 150 mM NaCl, and 40 mM citric acid/buffer Na2HPO4) for 16 h at 37 °C, without CO2. After incubation, the cells were observed using an optical microscope (magnification 20x).

[8] = test system: AsPC-1-induced platelet aggregation (washed platelets); test: Tumor cell-induced platelet aggregation (TCIPA), light aggregometry and TEM; format: cell-based, human; conditions: 50, 100 μM (any tested concentration), 10 min pre-incubation with washed platelets, AsPC-1 2 × 10^5/mL
Experimental: The MIA PaCa-2 and AsPC-1 cell cultures were washed and detached with 7 mM EDTA buffer. Next, the buffer was aspirated, and cells were centrifuged for 5 min at 1200 rpm and resuspended in Tyrod buffer. For TCIPA determination, MIA PaCa-2 cells were prepared at different concentrations: 10^5, 2 × 10^5, 5 × 10^5, 10^6 cells/mL; and AsPC-1 cells at concentrations of 5 × 10^4, 10^5, 2 × 10^5 cells/mL [31, 32, 33].
Samples collected after the TCIPA determination using the light aggregometer were fixed in 2.5% glutaraldehyde. The samples were then stained with 1% OsO4, gradually dehydrated with ethanol solution (30–100%), and embedded in EPON solution. Slides were prepared using a Leica UC7 ultramicrotome and stained with Uranyless and Reynolds lead citrate. Preparations were analyzed using a Tecnai G2 Spirit BioTWIN TEM [31].

[9] = all tested concentrations (1.56–100 nM), 3 days

| Structure (SMILES) | cytotoxicity to HEK-293 [1, 9] | effect on platelet aggregation (compound alone) [2] | cytotoxic effect compared to the commonly used chemotherapeutic agent (Gem) [3] | cytotoxicity to HDFa [4, 9] | presence of intact compound after 23 h (MS) ([5]; 37 °C, 0.5 mM, 23 h, MALDI-MS) | presence of intact compound after 23 h (HPLC) ([5]; 37 °C, 0.5 mM, 23 h, RP-HPLC) | presence of intact compound after 3 days (HPLC) ([5]; 3 days at room temperature, RP-HPLC) | release of parent drug during incubation ([5]; HPLC and MS) | remaining at 23 h, 0.5 mM ([5]; DMEM supplemented with 10% FBS, 37 °C, 0.5 mM, 23 h, RP-HPLC, read-out: HPLC peak area of intact conjugate after 23 h relative to area just after start of incubation) [%] | LDH release from platelets [6] | reduction in HEK-293 cell viability ([1]; 100 nM, 72 h, compared to the 100 nM OGF-Gem derivative) [%] | induction of cell senescence [7] | HDFa cell viability ([4]; 100 nM, 72 h, % of control) [%] | inhibition of TCIPA [8] | concentration after 23 h compared to the initial state ([5]; 37 °C, 0.5 mM, 23 h, RP-HPLC) |
| --- | --- | --- | --- | --- | --- | --- | --- | --- | --- | --- | --- | --- | --- | --- | --- |
| CSCC[C@H](NC(=O)[C@H](Cc1ccccc1)NC(=O)CNC(=O)CNC(=O)[C@H](Cc1ccc(O)cc1)NC(=O)CCC(=O)OC[C@H]1O[C@@H](n2ccc(N)nc2=O)C(F)(F)[C@@H]1O)C(=O)O [OGF-Gem] | slight cytotoxicity effect | do not affect platelet aggregation | more pronounced cytotoxic effect | slight cytotoxicity effect | not confirmed | confirmed | confirmed | gradual release of free Gem | ~39 | did not result in significant releases of LDH |  |  |  |  |  |
| Nc1ccn([C@@H]2O[C@H](CO)[C@@H](O)C2(F)F)c(=O)n1 [Gem, gemcitabine] |  | do not affect platelet aggregation |  |  |  |  |  |  |  |  | 80 | induced | 35 | did not inhibit |  |
| CSCC[C@H](NC(=O)[C@H](Cc1ccccc1)NC(=O)CNC(=O)CNC(=O)[C@@H](N)Cc1ccc(O)cc1)C(=O)O [OGF, [Met^5]-enkephalin, reference compound] |  | do not affect platelet aggregation |  |  |  | still present |  |  |  | did not result in significant releases of LDH |  |  |  |  | lower |
